Assay results: PMC4311985, “Molecular Surveillance of Antiviral Drug Resistance of Influenza A/H3N2 Virus in Singapore, 2009-2013” (PLoS ONE, 2015)

Experiments:
[1] = test system: influenza A/H3N2 NA D151A; conditions: ref [4] of supplement (Sheu 2008); cited from earlier work
[2] = test system: influenza A/H3N2 NA N294S; conditions: ref [3] of supplement (Nguyen 2012); cited from earlier work
[3] = test system: influenza A/H3N2 NA E119I; conditions: ref [3] of supplement (Nguyen 2012); cited from earlier work
[4] = test system: influenza A/H3N2 NA E119V+I222V; conditions: ref [3] of supplement (Nguyen 2012); cited from earlier work
[5] = test system: influenza A/H3N2 NA I222T; conditions: cited from earlier work
[6] = test system: influenza A/H3N2 NA R371K; conditions: ref [3] of supplement (Nguyen 2012); cited from earlier work
[7] = test system: influenza A/H3N2 NA D151V; conditions: ref [4] of supplement (Sheu 2008); cited from earlier work
[8] = test system: influenza A/H3N2 NA E276D; conditions: ref [3] of supplement (Nguyen 2012); cited from earlier work
[9] = test system: influenza A/H3N2 NA E41G; conditions: ref [2] of supplement (Monto 2006); cited from earlier work
[10] = test system: influenza A/H3N2 NA E119V; conditions: ref [3] of supplement (Nguyen 2012); cited from earlier work
[11] = test system: influenza A/H3N2 NA E119D; conditions: ref [3] of supplement (Nguyen 2012); cited from earlier work
[12] = test system: influenza A/H3N2 NA D151E; conditions: ref [3] of supplement (Nguyen 2012); cited from earlier work
[13] = test system: influenza A/H3N2 NA Q136K; conditions: ref [3] of supplement (Nguyen 2012); cited from earlier work
[14] = test system: influenza A/H3N2 NA E119V+I222L; conditions: ref [3] of supplement (Nguyen 2012); cited from earlier work
[15] = test system: influenza A/H3N2 NA R292K; conditions: ref [3] of supplement (Nguyen 2012); cited from earlier work
[16] = test system: influenza A/H3N2 NA R224K; conditions: ref [3] of supplement (Nguyen 2012); cited from earlier work
[17] = test system: influenza A/H3N2 NA Q226H; conditions: ref [2] of supplement (Monto 2006); cited from earlier work
[18] = biological target: influenza A/H3N2 NA, D93G, Y155F, D251V mutations in combination (Influenza A virus (H3N2), UniProt V9SU56, D251V/D93G/Y155F); type: biochemical; conditions: read-out: mean drug concentration required to inhibit 50% NA activity
[19] = biological target: influenza A/H3N2 NA, D93G, D251N mutations in combination (Influenza A virus (H3N2), UniProt V9SU56, D251N/D93G); type: biochemical; conditions: read-out: mean drug concentration required to inhibit 50% NA activity
[20] = biological target: influenza A/H3N2 NA, D93G single mutation (Influenza A virus (H3N2), UniProt V9SU56, D93G); type: biochemical; conditions: read-out: mean drug concentration required to inhibit 50% NA activity

Structure (SMILES)	Drug susceptibility by NA inhibition assays (WHO class) [1]	Drug susceptibility by NA inhibition assays (WHO class) [2]	Drug susceptibility by NA inhibition assays (WHO class) [3]	Drug susceptibility by NA inhibition assays (WHO class) [4]	Drug susceptibility by NA inhibition assays (WHO class) [6]	Drug susceptibility by NA inhibition assays (WHO class) [7]	Drug susceptibility by NA inhibition assays (WHO class) [8]	Drug susceptibility by NA inhibition assays (WHO class) [9]	Drug susceptibility by NA inhibition assays (WHO class) [10]	Drug susceptibility by NA inhibition assays (WHO class) [11]	Drug susceptibility by NA inhibition assays (WHO class) [12]	Drug susceptibility by NA inhibition assays (WHO class) [13]	Drug susceptibility by NA inhibition assays (WHO class) [14]	Drug susceptibility by NA inhibition assays (WHO class) [15]	Drug susceptibility by NA inhibition assays (WHO class) [16]	Drug susceptibility by NA inhibition assays (WHO class) [17]	also measured
CCOC(=O)C1=C[C@@H](OC(CC)CC)[C@H](NC(C)=O)[C@@H](N)C1 [Oseltamivir, oseltamivir]	S (<10-fold increase as susceptible (“S”))	R (>100-fold increase as resistant (“R”))	R (>100-fold increase as resistant (“R”))	R (>100-fold increase as resistant (“R”))	DS (10–100-fold increase as decreased susceptibility (“DS”))	S (<10-fold increase as susceptible (“S”))	DS (10–100-fold increase as decreased susceptibility (“DS”))	DS (10–100-fold increase as decreased susceptibility (“DS”))	DS/R	S (<10-fold increase as susceptible (“S”))	DS (10–100-fold increase as decreased susceptibility (“DS”))	S (<10-fold increase as susceptible (“S”))	R (>100-fold increase as resistant (“R”))	R (>100-fold increase as resistant (“R”))	R (>100-fold increase as resistant (“R”))	DS (10–100-fold increase as decreased susceptibility (“DS”))	increase in IC50 compared to that of the wild-type ([5]; I222T in influenza A/H3N2): 16 fold; Drug susceptibility by NA inhibition assays (WHO class) ([5]; I222T, ref [5] of supplement (Pizzorno 2014)): DS (10–100-fold increase as decreased susceptibility (“DS”))
CCC(CC)[C@H](NC(C)=O)[C@@H]1[C@H](O)[C@@H](C(=O)O)C[C@H]1N=C(N)N [Peramivir, peramivir]	–	S (<10-fold increase as susceptible (“S”))	S (<10-fold increase as susceptible (“S”))	S (<10-fold increase as susceptible (“S”))	–	–	–	–	S (<10-fold increase as susceptible (“S”))	S (<10-fold increase as susceptible (“S”))	–	–	–	DS/R	–	–	IC50 [18]: 0.2 ± 0.1 nM; IC50 fold-change compared to wildtype [2]: 1 fold; IC50 fold-change compared to wildtype [3]: 3 fold; IC50 fold-change compared to wildtype [4]: 7 fold; IC50 [19]: 0.4 nM; IC50 fold-change compared to wildtype [10]: 1-3 fold; IC50 fold-change compared to wildtype [11]: 2 fold; IC50 fold-change compared to wildtype [15]: 14-719 fold; IC50 [20]: 0.2 ± 0.1 nM
CC(=O)N[C@H]1[C@H]([C@H](O)[C@H](O)CO)OC(C(=O)O)=C[C@@H]1N=C(N)N [Zanamivir, zanamivir]	DS (10–100-fold increase as decreased susceptibility (“DS”))	S (<10-fold increase as susceptible (“S”))	DS (10–100-fold increase as decreased susceptibility (“DS”))	S (<10-fold increase as susceptible (“S”))	DS (10–100-fold increase as decreased susceptibility (“DS”))	DS (10–100-fold increase as decreased susceptibility (“DS”))	R (>100-fold increase as resistant (“R”))	S (<10-fold increase as susceptible (“S”))	S (<10-fold increase as susceptible (“S”))	DS (10–100-fold increase as decreased susceptibility (“DS”))	S (<10-fold increase as susceptible (“S”))	DS (10–100-fold increase as decreased susceptibility (“DS”))	S (<10-fold increase as susceptible (“S”))	S/DS/R	DS (10–100-fold increase as decreased susceptibility (“DS”))	S (<10-fold increase as susceptible (“S”))	–
